Measurements: article PMC7187253 (Clinical Pharmacology in Drug Development, 2019)
Read-outs that look alike come from different tables or passages of the source. Values belong to the compound of their own block, whether it stands above or below them.

Tests used:
[1] = test system: extracellular 5‐HT levels; conditions: compared with sertraline; cited from earlier work
[2] = assay type: in vivo, human; conditions: for MR (metabolite‐to‐parent ratio for AUC24), geometric mean (%CV): corrected for molecular weight; for Cmin, geometric mean (%CV): 0‐24 h after last dose; for AUC(0-t): AUClast
[3] = test system: cardiac repolarization in healthy subjects; experiment: PK/PD exposure‐response analysis of QTcF; conditions: for Estimated slope of the regression for ∆QTcF versus plasma concentration: separate PK/PD models for sertraline and N‐desmethylsertraline concentration
[4] = test system: healthy subjects; experiment: Safety assessments; assay type: in vivo, human; conditions: for Fatigue / Headache / Insomnia / TEAEs considered treatment related / Total TEAEs reported / Subjects reporting ≥1 AE: during treatment period; for Subjects reporting ≥1 AE: sertraline n = 52, moxifloxacin n = 50
[5] = cited from earlier work
[6] = test system: CYP1A2; conditions: cited from earlier work
[7] = test system: CYP2C19; conditions: cited from earlier work
[8] = test system: CYP2C9; conditions: cited from earlier work
[9] = test system: Kv1.5; conditions: Chinese hamster ovary cells; cited from earlier work
[10] = test system: CYP2D6; conditions: cited from earlier work
[11] = test system: QTc interval; conditions: cited from earlier work
[12] = test system: cardiac repolarization in healthy subjects
[13] = ref Pfizer Inc, data on file, cited from earlier work
[14] = cited from earlier work; remark: listed apart in the source
[15] = Day 1, sertraline 50 mg single dose
[16] = Day 1, sertraline 50 mg single dose, plasma, healthy subjects
[17] = Day 14, sertraline 400 mg/day multiple dose
[18] = patients admitted for sertraline overdose (>200 mg)
[19] = 1 h after dosing on day 14, sertraline 400 mg/day
[20] = 2 h after dosing on day 14, sertraline 400 mg/day
[21] = 3 h after dosing on day 14, sertraline 400 mg/day
[22] = 4 h after dosing on day 14, sertraline 400 mg/day
[23] = 5 h after dosing on day 14, sertraline 400 mg/day
[24] = 6 h after dosing on day 14, sertraline 400 mg/day
[25] = 8 h after dosing on day 14, sertraline 400 mg/day
[26] = 12 h after dosing on day 14, sertraline 400 mg/day
[27] = 24 h after dosing on day 14, sertraline 400 mg/day
[28] = categorical analysis of maximum postdose QTcF
[29] = human, plasma, 400 mg/day, arithmetic mean ± SD, Day 14, sertraline 400 mg/day multiple dose

AUC24, arithmetic mean ± SD [2, 15]: 0.07903 ± 0.019199 µg·h/mL
AUC24, geometric mean (%CV) [2, 15]: 76.87 (24) ng • h/mL
Cmax, arithmetic mean ± SD [2, 15]: 0.004428 ± 0.0013189 µg/mL
MR (metabolite‐to‐parent ratio for AUC24), arithmetic mean ± SD [2, 15]: 0.5493 ± 0.1743
tmax, median (range) [2, 15]: 12.0 (5.00‐23.9) h
Cmax, geometric mean (%CV) [2, 16]: 4.269 (27) ng/mL
MR (metabolite‐to‐parent ratio for AUC24), geometric mean (%CV) [2, 15]: 0.5222 (34)
Cmax, geometric mean (%CV) ([2]; Day 14, sertraline 400 mg/day (200 mg BID, only morning dose on day 14), multiple dose, plasma): 249.6 (23) ng/mL
AUC24, arithmetic mean ± SD [2, 17]: 5.342 ± 1.1095 µg·h/mL
AUC24, geometric mean (%CV) [2, 17]: 5227 (22) ng • h/mL
AUClast, arithmetic mean ± SD [2, 17]: 13.5 ± 3.2252 µg·h/mL
AUClast, geometric mean (%CV) [2, 17]: 13110 (25) ng • h/mL
Cmin, arithmetic mean ± SD [2, 17]: 0.1884 ± 0.039567 µg/mL
MR (metabolite‐to‐parent ratio for AUC24), arithmetic mean ± SD [2, 17]: 1.283 ± 0.3075
tmax, median (range) [2, 17]: 8.00 (1.07‐12.1) h
Cmin, geometric mean (%CV) [2, 17]: 184.1 (23) ng/mL
MR (metabolite‐to‐parent ratio for AUC24), geometric mean (%CV) [2, 17]: 1.248 (24)
Compound: N[C@H]1CC[C@@H](c2ccc(Cl)c(Cl)c2)c2ccccc21 [N‐desmethylsertraline]
Effect on extracellular 5‐HT levels [1]: lack of effect
Estimated slope of the regression for ∆QTcF versus plasma concentration [3]: 0.036 ms/ng/mL

Compound: COc1c(N2C[C@@H]3CCCN[C@@H]3C2)c(F)cc2c(=O)c(C(=O)O)cn(C3CC3)c12 [moxifloxacin]
Fatigue [4]: 7 subjects
Headache [4]: 11 subjects
Insomnia [4]: 11 subjects
TEAEs considered treatment related [4]: 92
Total TEAEs reported [4]: 105
Subjects reporting ≥1 AE [4]: 42 subjects
Population tmax [5]: 3 h

Compound: CN[C@H]1CC[C@@H](c2ccc(Cl)c(Cl)c2)c2ccccc21 [sertraline]
CYP1A2 inhibitor class [6]: weak inhibitor
CYP2C19 inhibitor class [7]: weak inhibitor
CYP2C9 inhibitor class [8]: weak inhibitor
Effect on Kv1.5 [9]: voltage‐dependent inhibition
CYP2D6 inhibitor class [10]: weak to moderate inhibitor
Incidence of maximum QTcB interval prolongation (males >450 ms; females >460 ms) ([11]; ECG database, dosing and concomitant medications unknown): 7.9%
Increase in QT/QTc interval ([11]; clinical trials, sertraline 50‐200 mg/day, major depression): No statistically significant increase
Mean increase in QTc interval compared with placebo ([11]; meta‐analysis of study‐level trial data, sertraline 50‐200 mg/day): 3.0 millisecond
Incidence of QTc interval >500 ms [11, 18]: 6%
Incidence of QTc interval greater than 440 ms [11, 18]: 40%
Mean QTcF increase ([11]; prospective, cross‐sectional population‐based study (n = 42)): 1.7 milliseconds
Fatigue [4]: 17 subjects
Headache [4]: 18 subjects
Insomnia [4]: 22 subjects
TEAEs considered treatment related [4]: 238
Total TEAEs reported [4]: 251
Subjects reporting ≥1 AE [4]: 45 subjects
Severe AE / SAE (psychiatric decompensation) ([4]; subject withdrawn, resolved the same day): single severe AE
Discontinued study treatment due to an AE (asthma) ([4]; while receiving sertraline treatment): One additional subject
QTcF, Least Squares Difference (Sertraline‐Placebo) [12, 19]: 6.957 ms
QTcF, Least Squares Mean [12, 19]: 414.299 ms
QTcF, Least Squares Difference (Sertraline‐Placebo) [12, 20]: 7.851 ms
QTcF, Least Squares Mean [12, 20]: 415.625 ms
QTcF, Least Squares Difference (Sertraline‐Placebo) [12, 21]: 7.824 ms
QTcF, Least Squares Mean [12, 21]: 416.465 ms
QTcF, Least Squares Difference (Sertraline‐Placebo) [12, 22]: 9.651 ms
QTcF, Least Squares Mean [12, 22]: 418.252 ms
QTcF, Least Squares Difference (Sertraline‐Placebo) [12, 23]: 7.377 ms
QTcF, Least Squares Mean [12, 23]: 411.285 ms
QTcF, Least Squares Difference (Sertraline‐Placebo) [12, 24]: 6.511 ms
QTcF, Least Squares Mean [12, 24]: 408.985 ms
QTcF, Least Squares Difference (Sertraline‐Placebo) [12, 25]: 5.597 ms
QTcF, Least Squares Mean [12, 25]: 408.732 ms
QTcF, Least Squares Difference (Sertraline‐Placebo) [12, 26]: 5.677 ms
QTcF, Least Squares Mean [12, 26]: 411.019 ms
QTcF, Least Squares Difference (Sertraline‐Placebo) [12, 27]: 7.346 ms
QTcF, Least Squares Mean [12, 27]: 414.294 ms
Time of longest placebo‐adjusted QTc interval ([12]; after dosing on day 14, sertraline 400 mg/day): 4 h
Subjects with absolute QTcF interval of ≥480 milliseconds [12, 28]: no participant
Subjects with maximum increase from baseline in QTcF of ≥60 milliseconds [12, 28]: no participant
Predose (time 0) QTcF, mean (standard deviation) ([12]; day 14 of sertraline treatment period): 414.9 (14.89) milliseconds
Cmax at 400 mg/day relative to Cmax at 200 mg/day ([13]; day 14): approximately 3 times
Mean Cmax ([13]; sertraline 400 mg/day, day 14, healthy subjects): 0.282 µg/mL
Cmax, geometric mean (%CV) [2, 16]: 11.39 (37) ng/mL
Cmin, arithmetic mean ± SD [2, 17]: 0.1461 ± 0.057093 µg/mL
Rac (observed accumulation ratio of AUC), arithmetic mean ± SD [2, 17]: 3.71 ± 0.82
Rac (observed accumulation ratio of AUC), geometric mean (%CV) [2, 17]: 3.62 (22.79)
Cmin, geometric mean (%CV) [2, 17]: 135.3 (43) ng/mL
Tmax ([2]; human, plasma, 50 mg): 5.06 h
AUC ([2]; human, plasma, 50 mg, AUC24, arithmetic mean ± SD, Day 1, sertraline 50 mg single dose): 0.162 ± 0.0503 µg·h/mL
AUC ([2]; human, plasma, 50 mg, AUC24, geometric mean (%CV), Day 1, sertraline 50 mg single dose): 0.154 µg·h/mL
Cmax ([2]; human, plasma, 50 mg, arithmetic mean ± SD, Day 1, sertraline 50 mg single dose): 0.0121 ± 0.00434 µg/mL
Cmax ([2]; human, plasma, 50 mg, geometric mean (%CV), Day 1, sertraline 50 mg single dose, plasma, healthy subjects): 0.0114 µg/mL
concentration at 4 h ([2]; human, plasma, 400 mg/day): 0.213 µg/mL
AUC ([2]; human, plasma, 400 mg/day, AUC24, arithmetic mean ± SD, Day 14, sertraline 400 mg/day multiple dose): 4.65 ± 1.58 µg·h/mL
AUC ([2]; human, plasma, 400 mg/day, AUC24, geometric mean (%CV), Day 14, sertraline 400 mg/day multiple dose): 4.39 µg·h/mL
AUC(0-t) [2, 29]: 9.19 ± 3.72 µg·h/mL
AUC(0-t) ([2]; human, plasma, 400 mg/day, geometric mean (%CV), Day 14, sertraline 400 mg/day multiple dose): 8.49 µg·h/mL
Cmax [2, 29]: 0.246 ± 0.0806 µg/mL
Cmax ([2]; human, plasma, 400 mg/day, geometric mean (%CV), Day 14, sertraline 400 mg/day (200 mg BID, only morning dose on day 14), multiple dose, plasma): 0.234 µg/mL
Increase in exposure with hepatic impairment ([5]; hepatic impairment): 1.7 fold
Maximum tolerated dose [14]: 400 mg/day
Predicted mean ∆∆QTcF ([3]; at mean supratherapeutic Cmax of 234 ng/mL on day 14): 8.93 milliseconds
Predicted mean ∆ΔQTcF (change from baseline QTcF adjusted for placebo) ([3]; at mean therapeutic maximum plasma sertraline concentration of 86 ng/mL (200 mg/day)): 3.57 milliseconds
Predicted mean ∆∆QTcF ([3]; at peak plasma sertraline concentration 223.5 ng/mL): 8.55 milliseconds
Estimated slope of the regression for ∆QTcF versus plasma concentration [3]: 0.036 ms/ng/mL
